In test [1] the test system is LTB4 biosynthesis in human polymorphonuclear leukocytes (PMNL). The test is described as follows: Inhibition of calcium ionophore (A23187)-induced LTB4 biosynthesis in human PMNL. Format: cell-based. As to conditions: 15 min preincubation at 37° C., A23187 8.3 μM, 10 min, LTB4 by HPLC. As for the experimental part:
Inhibition of leukotriene biosynthesis was evaluated in assays, involving calcium ionophore-induced LTB4 biosynthesis expressed by human polymorphonuclear leukocytes (PMNL) or human whole blood. Human PMNL were isolated from heparinized (20 USP units/mL) venous blood using Ficoll-Hypaque Mono-Poly Resolving Medium. Human PMNL suspensions (5×10^6 cells/250 μL) were preincubated with test compounds or vehicle for 15 min at 37° C. followed by calcium ionophore A23187 challenge (final concentration of 8.3 μM) and the reaction terminated after 10 min by adding two volumes of methanol containing prostaglandin B2 as an internal recovery standard. The methanol extracts were analyzed for LTB4 content by HPLC.

In the next test the test system is leukotriene biosynthesis. Briefly: Inhibition of leukotriene biosynthesis in vivo, rat peritoneal anaphylaxis model, oral administration. As to conditions: 1 h, by gavage one hour prior to antigen challenge. The protocol:
Inhibition of the biosynthesis of leukotrienes in vivo after oral administration of compound was determined using a rat peritoneal anaphylaxis model in a similar manner as that described by Young and coworkers (Young, P. R.; Dyer, R. D.; Carter, G. W. Fed. Proc., Fed. Am. Sec. Exp. Biol. 1985, 44, 1185). In this model rats were injected intraperitoneally (ip) with rabbit antibody to bovine serum albumin (BSA) and three hours later injected ip with BSA to induce an antigen-antibody response. Rats were sacrificed 15 minutes after this challenge and the peritoneal fluids were collected and analyzed for leukotriene levels. Test compounds were administered by gavage one hour prior to the antigen challenge. Percent inhibition values were determined by comparing the treatment group to the mean of the control group.

As a reminder, the IC50 is the concentration needed to halve the response being measured. `CC(C)(CON=CC(=O)O)Cc1c(SC(C)(C)C)c2cc(OCc3ccc4ccccc4n3)ccc2n1Cc1ccc(F)cc1` [Example 6, 1-(4-fluorobenzyl)-3-(t-butylthio)-5-(2-quinolinylmethoxy)indol-2-yl-(2,2-dimethyl)prop-3-yliminooxyacetic acid]: in test [1], the IC50 came out at 5 nM.
On the same count and under the same terms, in the case of `CC(=NOCC(C)(C)Cc1c(SC(C)(C)C)c2cc(OCc3ccc4ccccc4n3)ccc2n1Cc1ccc(Cl)cc1)C(=O)O` [Example 2, 1-(4-chlorobenzyl)-3-(t-butylthio)-5-(2-quinolinemethoxy)indol-2-yl(2,2-dimethyl)prop-3-yl-iminooxy-2-propionic acid] it was 10 nM.
The ED50 is the dose that gives a 50% effect, or the effect in half of the subjects. For `CC(C)(CON=CC(=O)O)Cc1c(SC(C)(C)C)c2cc(OCc3ccc4ccccc4n3)ccc2n1Cc1ccc(Cl)cc1` [Example 1], the IC50 in test [1] amounted to 10 nM. The compound also registered an ED50 in the test on leukotriene biosynthesis of 0.9 mg/kg.
In the case of `CC(=NOCC(C)(C)Cc1c(SC(C)(C)C)c2cc(OCc3cscn3)ccc2n1Cc1ccc(Cl)cc1)C(=O)O` [Example 5, 1-(4-chlorobenzyl)-3-(t-butylthio)-5-(4-thiazolylmethoxy)indol-2-yl-(2,2-dimethyl)prop-3-yliminooxy-2-propionic acid], the IC50 in test [1] turned out to be 8 nM.
